Test results as given in PMC4770234, “The conserved GTPase HflX is a ribosome splitting factor that binds to the E-site of the bacterial ribosome” (Nucleic Acids Research, 2016).

Experiments:
HflX ΔL372 = molecular target: T1, HflX ΔL372 (Escherichia coli, UniProt P25519); assay: [γ-32P]GTP hydrolysis, phosphate release, multiple turnover; type: biochemical; conditions: ribosome-stimulated GTPase; 1 uM HflX, 125 uM GTP, 1 uM ribosomes per methods; labelled compound
T1 construct: C-terminal truncation: codon Leu372 (elsewhere printed Lys372) replaced by amber stop; N-terminal His6-tag, pET28a
T1 sequence (P25519 1-371): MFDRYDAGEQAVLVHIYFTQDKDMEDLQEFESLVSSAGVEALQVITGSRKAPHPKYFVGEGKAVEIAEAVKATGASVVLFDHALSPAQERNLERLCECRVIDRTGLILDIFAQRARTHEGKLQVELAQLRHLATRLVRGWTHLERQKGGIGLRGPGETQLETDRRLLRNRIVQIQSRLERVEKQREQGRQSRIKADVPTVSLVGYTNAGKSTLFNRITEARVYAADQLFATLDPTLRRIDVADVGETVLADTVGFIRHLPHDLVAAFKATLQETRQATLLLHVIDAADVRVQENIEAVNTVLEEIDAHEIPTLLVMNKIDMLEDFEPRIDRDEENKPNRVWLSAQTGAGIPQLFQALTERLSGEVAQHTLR

HflX (wild-type) = molecular target: T2, HflX (wild-type) (Escherichia coli, UniProt P25519); assay: stopped-flow light scattering of […] ribosome splitting; type: biochemical; conditions: 1 uM HflX, 125 uM nucleotide, 0.15 uM 70S ribosomes, 5 mM Mg2+, 20 °C; compared with apo HflX; indirect functional read-out
T2 construct: full length, N-terminal His6-tag, pET28a
T2 sequence (P25519 whole entry): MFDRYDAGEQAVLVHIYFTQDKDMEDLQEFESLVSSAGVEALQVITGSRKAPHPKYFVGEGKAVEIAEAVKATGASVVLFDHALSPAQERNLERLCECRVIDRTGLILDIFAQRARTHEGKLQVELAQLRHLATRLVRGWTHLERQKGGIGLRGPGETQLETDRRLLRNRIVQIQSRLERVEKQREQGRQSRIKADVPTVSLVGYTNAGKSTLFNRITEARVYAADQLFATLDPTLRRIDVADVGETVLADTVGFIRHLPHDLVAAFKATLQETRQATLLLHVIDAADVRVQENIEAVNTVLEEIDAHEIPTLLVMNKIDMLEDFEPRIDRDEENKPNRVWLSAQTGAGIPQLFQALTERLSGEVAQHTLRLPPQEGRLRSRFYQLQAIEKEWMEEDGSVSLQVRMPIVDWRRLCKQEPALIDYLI

Row | Structure (SMILES) | [γ-32P]GTP hydrolysis, phosphate release, multiple turnover (HflX ΔL372) | stopped-flow light scattering of 70S ribosome splitting (HflX (wild-type))
1 | Nc1nc2c(ncn2[C@@H]2O[C@H](COP(=O)(O)OP(=O)(O)OP(=O)(O)O)[C@@H](O)[C@H]2O)c(=O)[nH]1 [GTP] | we tested the ΔL372 truncation variant for GTP hydrolysis finding that it is still active | 
2 | Nc1nc2c(ncn2[C@@H]2O[C@H](COP(=O)(O)OP(=O)(O)NP(=O)(O)O)[C@@H](O)[C@H]2O)c(=O)[nH]1 [GDPNP] |  | HflX•GDPNP dissociated ribosomes to a greater extent than HflX•GDP
